Reference: patent publication US3943172A, “Derivatives of 2-amino-(1,2,3,4-tetrahydronaphthalene), the preparation and use thereof” (priority 1972, dated 1976)

Assays:
[1] = system: premature heart contractions; test: oral antiarrhythmic activity in rats using aconitine (dose of aconitine to first extrasystoles); format: in vivo; conditions: 75 mg/kg, 75 minutes before aconitine perfusion, acid addition salts; for % Activity versus Lidocaine: relative to lidocaine; for % Activity versus Procainamide: relative to procainamide
Experimental: The method used for these tests is described hereafter:
Male or female rats with a body-weight ranging from 380 to 450 g.
3.12 μg aconitine nitrate/1 ml physiological saline.
Solution of the compound to be tested:
0.75% in distilled water.
Six random selected animals are required for each compound to be tested. The compound is administered by oral route at the dose of 75 mg/kg (1 ml of the 0.75% solution/100 g of body-weight) 75 minutes before the intravenous perfusion of the aconitine solution is initiated.
Control groups of animals are treated only with distilled water (1 ml/100 g).
60 minutes after the administration of the compound to be tested, the animals are anesthesized by an intraperitoneal injection of Pentobarbital (50 mg/kg) and the jugular vein is dissected.
A catheter is introduced in the vein and fixed by a ligature.
The ECG (D II derivation) is then continuously recorded. The perfusion of the aconitine solution is started 75 minutes after the administration of the compound to be tested.
The volume delivered by the injection device being 0.287 ml/minute, the dose of aconitine nitrate administered is 0.895 μg/minute (0.20 - 0.24 μg/100 g/minute according to the minimal and maximal weight of the animals).
The experience is stopped as soon as the first extrasystoles are appearing and the time elapsed from the beginning of the perfusion is noted.
The results are expressed as the mean total dose of aconitine injected in a group of animals.
The relative activity between a tested compound and a reference substance (lidocaine, procainamide) is computed in the following way: [formula] where: A(x) = activity of tested compound X (in %)
X = mean dose of aconitine in the animals treated by compound X
C = mean dose of aconitine injected in the untreated animals (controls)
R = mean dose of aconitine injected in the animals treated by the reference substances.

[2] = system: tachycardias and fibrillation of ventricular origin; conditions: cited from earlier work; for oral activity: known antiarrhythmic agents, in words

CCN(CC)CCN(c1ccccc1)C1CCc2ccccc2C1 (stereo not drawn) [1 H2 H N-diethyl, 2-[N-phenyl-N-(β-diethylaminoethyl)]-amino(1,2,3,4-tetrahydronaphthalene)]
% Activity versus Lidocaine [1]: 439%
% Activity versus Procainamide [1]: 560%

CCN(CC)CCN(c1ccccc1)C1CCc2cc(OC)ccc2C1 (stereo not drawn) [1 H2 OCH3 N-diethyl, 2-[N-phenyl-N-(β-diethylaminoethyl)]-amino-6-methoxy-(1,2,3,4-tetrahydronaphthalene)]
% Activity versus Lidocaine [1]: 173%
% Activity versus Procainamide [1]: 220%

COc1ccc2c(c1)CCC(N(CCN(C)C)c1ccccc1)C2 (stereo not drawn) [1 H2 OCH3 N-dimethyl, 2-[N-phenyl-N-(β-dimethylaminoethyl)]-amino-6-methoxy-(1,2,3,4-tetrahydronaphthalene)]
% Activity versus Lidocaine [1]: 57%
% Activity versus Procainamide [1]: 72%

COc1ccc2c(c1)CCC(N(CCN1CCCCC1)c1ccccc1)C2 (stereo not drawn) [1 H2 OCH3 piperidino, 2-[N-phenyl-N-(β-piperidinoethyl)]-amino-6-methoxy-(1,2,3,4-tetrahydronaphthalene)]
% Activity versus Lidocaine [1]: 103%
% Activity versus Procainamide [1]: 131%

CNCCC(=O)N(c1ccccc1)C1CCc2ccccc2C1 (stereo not drawn) [2 0 H NH-methyl, 2-[N-phenyl-N-(β-methylaminopropionyl)]-amino-(1,2,3,4-tetrahydronaphthalene)]
% Activity versus Lidocaine [1]: 769%
% Activity versus Procainamide [1]: 982%

CCN(CC)CCCN(c1ccccc1)C1CCc2ccccc2C1 (stereo not drawn) [2 H2 H N-diethyl, 2-[N-phenyl-N-(γ-diethylaminopropyl)]-amino-(1,2,3,4-tetrahydronaphthalene)]
% Activity versus Lidocaine [1]: 563%
% Activity versus Procainamide [1]: 719%

CN(C)CCCN(c1ccccc1)C1CCc2ccccc2C1 (stereo not drawn) [2 H2 H N-dimethyl, 2-[N-phenyl-N-(γ-dimethylaminopropyl)]-amino-(1,2,3,4-tetrahydronaphthalene)]
% Activity versus Lidocaine [1]: 41%
% Activity versus Procainamide [1]: 52%

CCNCCCN(c1ccccc1)C1CCc2ccccc2C1 (stereo not drawn) [2 H2 H NH-ethyl, 2-[N-phenyl-N-(γ-ethylaminopropyl)]-amino-(1,2,3,4-tetrahydronaphthalene)]
% Activity versus Lidocaine [1]: 703%
% Activity versus Procainamide [1]: 897%

CNCCCN(c1ccccc1)C1CCc2ccccc2C1 (stereo not drawn) [2 H2 H NH-methyl, 2-[N-phenyl-N-(γ-methylaminopropyl)]-amino-(1,2,3,4-tetrahydronaphthalene)]
% Activity versus Lidocaine [1]: 288%
% Activity versus Procainamide [1]: 368%

c1ccc(N(CCCN2CCCCC2)C2CCc3ccccc3C2)cc1 (stereo not drawn) [2 H2 H piperidino, 2-[N-phenyl-N-(γ-piperidinopropyl)]-amino-(1,2,3,4-tetrahydronaphthalene)]
% Activity versus Lidocaine [1]: 62%
% Activity versus Procainamide [1]: 78%

c1ccc(N(CCCN2CCCC2)C2CCc3ccccc3C2)cc1 (stereo not drawn) [2 H2 H pyrrolidino, 2-[N-phenyl-N-(γ-pyrrolidinopropyl)]-amino-(1,2,3,4-tetrahydronaphthalene)]
% Activity versus Lidocaine [1]: 268%
% Activity versus Procainamide [1]: 342%

CCN(CC)CCCN(c1ccccc1)C1CCc2cc(OC)ccc2C1 (stereo not drawn) [2 H2 OCH3 N-diethyl, 2-[N-phenyl-N-(γ-diethylaminopropyl)]-amino-6-methoxy-(1,2,3,4-tetrahydronaphthalene)]
% Activity versus Lidocaine [1]: 96%
% Activity versus Procainamide [1]: 123%

CCN(CC)CC(=O)Nc1c(C)cccc1C [lidocaine]
oral activity [2]: too low

CCN(CC)CCNC(=O)c1ccc(N)cc1 [procainamide]
side effects [2]: hypotension
oral activity [2]: too short
